This note sets out measurements from patent US10689327B2, “Prodrug amino acid derivative” (TAISHO PHARMACEUTICALS CO., LTD., priority 2016, dated 2020).

Where a name gives a salt, the structure may show the parent alone.

The nature of the data set: Stability test in solution (pH 1.2 and pH 6.5). It is filed as physicochemical. To be noted: 1 hour; for Compound's percent residue (%) pH 6.5: 20 mM phosphate buffer pH 6.5, 37° C.; for Compound's percent residue (%) pH 1.2: hydrochloric acid solution pH 1.2, 37° C. The protocol:
Test 2: Stability Test in Solution
A test to determine the stability of Inventive Compounds (I-A) or (I) in a hydrochloric acid solution (pH 1.2) and 20 mM phosphate buffer (pH 6.5) was conducted in accordance with the following method.
A compound was dissolved in a hydrochloric acid solution (pH 1.2) containing hydrochloric acid and sodium chloride or a 20 mM phosphate buffer (pH 6.5) containing disodium hydrogenphosphate, sodium dihydrogenphosphate and sodium chloride to prepare a solution with a concentration of about 50 ng/mL (near the saturated concentration when the compound was not dissolved). The solution was incubated at 37° C. for 1 hour and the compound's concentration before and after the incubation was quantified by high-performance liquid chromatography to calculate the percent residue of the compound. Compounds having low solubility were assessed as being not applicable.
The percent residues of representative compounds in the hydrochloric acid solution (pH 1.2) and the 20 mM phosphate buffer (pH 6.5) are shown in the following Table 2.

With `CCCO[C@@H]1C[C@@H]2[C@H]([C@]1(N)C(=O)O[C@@H](C)OC(=O)O[C@@H]1C[C@H](C)CC[C@H]1C(C)C)[C@@]2(F)C(=O)O` [Example 13, (1R,2R,3R,5R,6R)-2-amino-6-fluoro-2-({(1R)-1-[({[(1R,2S,5R)-5-methyl-2-(propan-2-yl)cyclohexyl]oxy}carbonyl)oxy]ethoxy}carbonyl)-3-propoxybicyclo[3.1.0]hexane-6-carboxylic acid], the “Compound's percent residue (%) pH 6.5” value stood at 98% and the “Compound's percent residue (%) pH 1.2” value is 98%.

In the case of `CC(C)[C@H](N)C(=O)OCOC(=O)[C@@]1(N)[C@H]2[C@@H](C[C@H]1OCc1ccc(F)cc1)[C@]2(F)C(=O)O` [Example 6, (1R,2R,3R,5R,6R)-2-Amino-6-fluoro-3-[(4-fluorophenyl)methoxy]-2-{[(L-valyloxy)methoxy]carbonyl}bicyclo[3.1.0]hexane-6-carboxylic acid dihydrochloride], the “Compound's percent residue (%) pH 6.5” value came to 11% and the “Compound's percent residue (%) pH 1.2” value was found to be 99%.

With `N[C@]1(C(=O)OCOC(=O)C23CC4CC(CC(C4)C2)C3)[C@H]2[C@@H](C[C@H]1OCc1ccc(F)c(F)c1)[C@]2(F)C(=O)O` [Example 12, (1R,2R,3R,5R,6R)-2-Amino-3-[(3,4-difluorophenyl)methoxy]-6-fluoro-2-({[(tricyclo[3.3.1.1^3,7]decane-1-carbonyl)oxy]methoxy}carbonyl)bicyclo[3.1.0]hexane-6-carboxylic acid], the “Compound's percent residue (%) pH 6.5” value was 102% and the “Compound's percent residue (%) pH 1.2” value stood at 101%.

Consider `C[C@@H](OC(=O)C12CC3CC(CC(C3)C1)C2)OC(=O)[C@@]1(N)[C@H]2[C@@H](C[C@H]1OCc1ccc(F)cc1)[C@@H]2C(=O)O` [Example 38, (1S,2R,3R,5R,6S)-2-amino-3-[(4-fluorophenyl)methoxy]-2-({(1S)-1-[(tricyclo[3.3.1.1^3,7]decane-1-carbonyl)oxy]ethoxy}carbonyl)bicyclo[3.1.0]hexane-6-carboxylic acid], for which the “Compound's percent residue (%) pH 6.5” value was determined as 94% and the “Compound's percent residue (%) pH 1.2” value is given as 97%.

For `CC(C)[C@@H]1CC[C@@H](C)C[C@H]1OC(=O)O[C@@H](C)OC(=O)[C@@]1(N)[C@H]2[C@@H](C[C@H]1OCc1ccc(F)cc1)[C@]2(F)C(=O)O` [Example 2, (1R,2R,3R,5R,6R)-2-Amino-6-fluoro-3-[(4-fluorophenyl)methoxy]-2-({(1S)-1-[({[(1R,2S,5R)-5-methyl-2-(propan-2-yl)cyclohexyl]oxy}carbonyl)oxy]ethoxy}carbonyl)bicyclo[3.1.0]hexane-6-carboxylic acid], the “Compound's percent residue (%) pH 6.5” value is 104%.

As to `CC(OC(=O)O[C@H]1C[C@H]2CC[C@]1(C)C2(C)C)OC(=O)[C@@]1(N)[C@H]2[C@@H](C[C@H]1OCc1ccc(F)cc1)[C@]2(F)C(=O)O` (single isomer, unassigned) [Example 19-B], the “Compound's percent residue (%) pH 6.5” value was 106% and the “Compound's percent residue (%) pH 1.2” value was 100%.

Turning to `CC(OC(=O)O[C@H]1C[C@H]2CC[C@]1(C)C2(C)C)OC(=O)[C@@]1(N)[C@H]2[C@@H](C[C@H]1OCc1ccc(F)cc1)[C@]2(F)C(=O)O` (stereo partly drawn) [Example 19-A, (1R,2R,3R,5R,6R)-2-Amino-6-fluoro-3-[(4-fluorophenyl)methoxy]-2-({1-[({[(1R,2S,4R)-1,7,7-trimethylbicyclo[2.2.1]heptan-2-yl]oxy}carbonyl)oxy]ethoxy}carbonyl)bicyclo[3.1.0]hexane-6-carboxylic acid], the “Compound's percent residue (%) pH 6.5” value came out at 99% and the “Compound's percent residue (%) pH 1.2” value amounted to 98%.

As for `CCCO[C@@H]1C[C@@H]2[C@H]([C@]1(N)C(=O)OC(C)OC(=O)O[C@@H]1C[C@@H]3CC[C@@]1(C)C3(C)C)[C@@]2(F)C(=O)O` (stereo partly drawn) [Example 18-B, (1R,2R,3R,5R,6R)-2-Amino-6-fluoro-3-propoxy-2-({1-[({[(1S,2R,4S)-1,7,7-trimethylbicyclo[2.2.1]heptan-2-yl]oxy}carbonyl)oxy]ethoxy}carbonyl)bicyclo[3.1.0]hexane-6-carboxylic acid], the “Compound's percent residue (%) pH 6.5” value is listed as 112%.
